Laboratory results published in BindingDB's records for doi:10.1021/bi900236k (University of Thessaly, 2009).

The compounds below were run against T1, Poly(A)-specific ribonuclease PARN (Homo sapiens, UniProt O95453) (assay: PARN Activity Assay).
T1 sequence (O95453 whole entry): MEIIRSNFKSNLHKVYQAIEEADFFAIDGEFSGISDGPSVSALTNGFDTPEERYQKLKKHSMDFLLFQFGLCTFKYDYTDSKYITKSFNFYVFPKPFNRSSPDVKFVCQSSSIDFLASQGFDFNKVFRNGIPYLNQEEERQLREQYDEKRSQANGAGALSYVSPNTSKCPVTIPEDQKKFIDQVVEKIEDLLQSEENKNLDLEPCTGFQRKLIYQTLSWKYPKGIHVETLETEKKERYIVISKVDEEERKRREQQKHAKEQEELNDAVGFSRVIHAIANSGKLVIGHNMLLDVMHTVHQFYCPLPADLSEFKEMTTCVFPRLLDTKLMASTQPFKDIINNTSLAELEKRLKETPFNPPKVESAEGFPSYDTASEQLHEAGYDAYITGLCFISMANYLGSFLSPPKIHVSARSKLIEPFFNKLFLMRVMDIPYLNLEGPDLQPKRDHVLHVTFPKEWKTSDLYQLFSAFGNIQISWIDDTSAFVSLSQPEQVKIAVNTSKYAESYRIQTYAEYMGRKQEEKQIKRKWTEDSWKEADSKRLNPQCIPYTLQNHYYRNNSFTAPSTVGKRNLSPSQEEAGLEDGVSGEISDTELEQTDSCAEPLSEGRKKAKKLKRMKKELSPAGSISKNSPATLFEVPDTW
Description: The enzymatic activity was determined by the methylene blue assay.
Work on O=C(Nc1ncnc2c1ncn2C1OC(O)C(O)C(F)C1O)c1ccccc1 (stereo not drawn) [Nucleoside, A2] yielded a Ki of 510 µM. Work on O=C(Nc1ccn(C2OC(CO)C(O)C(F)C2O)c(=O)n1)c1ccccc1 (stereo not drawn) [Nucleoside, A6] yielded a Ki of 210 µM. Work on Nc1ccn(C2OC(CO)C(O)C(F)C2O)c(=O)n1 (stereo not drawn) [Nucleoside, C6] yielded a Ki of 645 µM.
